Test system: Ser40 phosphorylation of Th in MN9D cells
Test: Th Ser40 phosphorylation in MN9D cells (western blot, P-Ser40/total Th)
Type: cell-based
Method: FIG. 6. PDE2a is an important effector regulating Ser40 phosphorylation in MN9D cells. MN9D cultures were treated with IBMX or BAY-60-7550 (50 μM), a PDE2A-selective inhibitor. Cells were analyzed on western-blot for phosphorylation of Ser40 , total Th, and actin.
FIG. 7. PDE2a is an important effector regulating Ser40 phosphorylation in MN9D cells. BAY-60-7550 dose-curve and representative examples in MN9D (n=9, red) and HEK cells (n=4, blue) (Mean±SEM). Cells were treated with various concentrations of BAY 60-7750 and analyzed for Th phosphorylation on Ser40 , total Th and actin.
FIG. 10. PDE11 is an important effector regulating Ser40 phosphorylation in MN9D cells. BC 11-38 dose-curve and representative examples in MN9D (n=2) (Mean±SEM). IBMX served as a control and was used at 100 μM. Cell were analyzed for phosphorylation of Th on Ser40 and total Th was used as a loading control to determine phosphorylation specific effects.
24 hours prior to the administration of the different compounds, cells were serum-starved with DMEM medium supplemented with L-glutamine and Pen&Strep. Unless otherwise stated, the concentration of the different reagents is reported in Table 1 and the duration of the treatment was 1 hour.
Cells were harvested in 150 μL of Laemmli sample buffer (2% SDS, 10% glycerol, 60 mM Tris-Cl pH 6.8, 0.01% bromophenol blue, 50 mM freshly added DTT). Wells were duplicated in pairs and pooled into the same tubes to minimize variability. Samples were sonicated at maximum potency during 3 minutes, heated at 95° C. for 5 minutes and spun down briefly before loading. Running gels were 10% polyacrylamide except for the GUCY2C detection, which was optimal in 7% gels (375 mM Tris-Cl pH 8.8, 0.1% APS, 0.1% SDS, 0.04% TEMED). Stacking gels were 5% polyacrylamide (125 mM Tris-Cl pH 6.8, 0.1% APS, 0.1% SDS, 0.04% TEMED).
Up to 35 μL of sample was loaded in each slot and run in the presence of tris-glycine buffer and 0.1% SDS. Running conditions were 100 V during the first 20 minutes, followed by 160 V until the migration front reached the bottom of the gel. The transference was performed at 100 V onto 0.2 μm nitrocellulose membranes, in the presence of tris-glycine buffer and 20% methanol. The blotting duration was 140 minutes except for the detection of GUCY2C, which was transferred during 240 minutes in the presence of 0.1% SDS. Membranes were then submerged in Ponceau S solution to check blotting efficiency (0.1% Ponceau S, 5% acetic acid). After several washings with DEMI water, blots were incubated during 1 hour in the presence of 5% milk powder and TBS-T (154 mM NaCl, 49.5 mM Tris-Cl pH 7.4, 0.1% Tween-20). The incubation with the primary antibodies was performed O/N at 4° C. in TBS-T (consult Table 2 for dilution and species). Membranes were rinsed in TBS-T during 1 hour to remove the excess antibody. The incubation with the secondary antibodies took place during 60 minutes at room temperature (1:10,000 dilution in TBS-T, with the exception of the goat secondary which was diluted 1:20,000). Secondary antibodies were fused to the horseradish peroxidase and raised against the host species of the primary antibody. After additional washings during 1 hour, blots were exposed to an enhanced chemiluminescence solution and the signal was detected using an Odyssey imager (LI-COR). Band densitometry was performed with LI-COR Image Studio Lite. For graph quantifications, ‘Fold Change’ represents the ratio P-Ser40/Total Th. Statistical comparisons between pair of groups correspond to unpaired Student's t-tests, as calculated with GraphPad Prism. Asterisks denote the following p-values: *<0.05, **<0.01, ***<0.001, ****<0.0001.
IBMX is a non-selective PDE inhibitor, therefore we investigated the effect of inhibiting a specific PDE selectively on Ser40 phosphorylation. To study the effect of PDE2A inhibition on Ser40 phosphorylation we treated the dopaminergic cell-line MN9D with Bay BAY-60-7550 and analyzed the effects. […]

COc1ccc(Cc2nn3c([C@@H](CCCc4ccccc4)[C@@H](C)O)nc(C)c3c(=O)[nH]2)cc1OC [BAY 60-7550]
increase in the phosphorylation of Ser40 (50 μM): more than 4 fold | performance versus IBMX on Ser40 phosphorylation (IBMX 100 μM as control): performed better than IBMX | phosphorylation of Th on Ser40 as compared to total Th (in words) (dose-curve): clear fold change increase in Ser40 phosphorylation | IC50 (n=9, read-out: IC50 in the dopaminergic model (dose-curve of Th Ser40 phosphorylation)): 1000 nM
